Assay results as given in patent US12582617B2, “Methods for treating cancer” (RADIUS PHARMACEUTICALS, INC., priority 2015, dated 2026).
Structures can show the parent of a compound that is named as a salt.

Test: Phase 1 dose escalation study: safety, treatment related AEs
Type: in vivo
Experimental: The subjects were 40-75 years old with BMI of 18.0-30 kg/m^2. Subjects having evidence of clinically relevant pathology, increased risk of stroke or of history venous thromboembolic events, or use of concomitant medication less than 14 days prior to admission to clinical research center (paracetamol allowed up to 3 days prior) were excluded.
The subjects were treated with placebo or at least one dose p.o., q.d. after a light breakfast for 7 days at dose levels of 200 mg, 500 mg, 750 mg and 1000 mg, respectively.

[1] = 200 to 1000 mg p.o., q.d., 7 days

CCNCCc1ccc(CN(CC)c2cc(OC)ccc2[C@@H]2CCc3cc(O)ccc3C2)cc1 [RAD1901, (6R)-6-(2-(N-(4-(2-(ethylamino)ethyl)benzyl)-N-ethylamino)-4-methoxyphenyl)-5,6,7,8-tetrahydronaphthalen-2-ol dihydrochloride]
Abdominal distension (treatment related AE) (750 mg, Gr3): 0 n(%)
Abdominal pain (treatment related AE) (750 mg, Gr3): 0 n(%)
Diarrhoea (treatment related AE) (750 mg, Gr3): 0 n(%)
Dizziness (treatment related AE) (750 mg, Gr3): 0 n(%)
Dyspepsia (treatment related AE) (750 mg, Gr3): 0 n(%)
Dysphagia (treatment related AE) (750 mg, Gr3): 0 n(%)
Flatulance (treatment related AE) (750 mg, Gr3): 0 n(%)
Headache (treatment related AE) (750 mg, Gr3): 0 n(%)
Hiccups (treatment related AE) (750 mg, Gr3): 0 n(%)
Hot flush (treatment related AE) (750 mg, Gr3): 0 n(%)
Myalgia (treatment related AE) (750 mg, Gr3): 0 n(%)
Nausea (treatment related AE) (750 mg, Gr3): 0 n(%)
Odynophagia (treatment related AE) (750 mg, Gr3): 0 n(%)
Oesophageal pain (treatment related AE) (750 mg, Gr3): 0 n(%)
Salivary hypersecretion (treatment related AE) (750 mg, Gr3): 0 n(%)
Sensation of a foreign body (treatment related AE) (750 mg, Gr3): 0 n(%)
Vomiting (treatment related AE) (750 mg, Gr3): 0 n(%)
Abdominal discomfort (treatment related AE) (1000 mg, Gr1): 0 n(%)
Abdominal distension (treatment related AE) (1000 mg, Gr1): 2 (29) n(%)
Abdominal pain (treatment related AE) (1000 mg, Gr1): 1 (14) n(%)
Diarrhoea (treatment related AE) (1000 mg, Gr1): 3 (43) n(%)
Dizziness (treatment related AE) (1000 mg, Gr1): 1 (14) n(%)
Dyspepsia (treatment related AE) (1000 mg, Gr1): 1 (14) n(%)
Dysphagia (treatment related AE) (1000 mg, Gr1): 0 n(%)
Flatulance (treatment related AE) (1000 mg, Gr1): 0 n(%)
Headache (treatment related AE) (1000 mg, Gr1): 2 (29) n(%)
Hiccups (treatment related AE) (1000 mg, Gr1): 2 (29) n(%)
Hot flush (treatment related AE) (1000 mg, Gr1): 1 (14) n(%)
Myalgia (treatment related AE) (1000 mg, Gr1): 0 n(%)
Nausea (treatment related AE) (1000 mg, Gr1): 4 (57) n(%)
Odynophagia (treatment related AE) (1000 mg, Gr1): 1 (14) n(%)
Oesophageal pain (treatment related AE) (1000 mg, Gr1): 1 (14) n(%)
Salivary hypersecretion (treatment related AE) (1000 mg, Gr1): 2 (29) n(%)
Sensation of a foreign body (treatment related AE) (1000 mg, Gr1): 4 (57) n(%)
Vomiting (treatment related AE) (1000 mg, Gr1): 0 n(%)
Abdominal discomfort (treatment related AE) (1000 mg, Gr2): 0 n(%)
Abdominal distension (treatment related AE) (1000 mg, Gr2): 0 n(%)
Abdominal pain (treatment related AE) (1000 mg, Gr2): 1 n(%)
Diarrhoea (treatment related AE) (1000 mg, Gr2): 1 n(%)
Dizziness (treatment related AE) (1000 mg, Gr2): 0 n(%)
Dyspepsia (treatment related AE) (1000 mg, Gr2): 1 n(%)
Dysphagia (treatment related AE) (1000 mg, Gr2): 0 n(%)
Flatulance (treatment related AE) (1000 mg, Gr2): 0 n(%)
Headache (treatment related AE) (1000 mg, Gr2): 0 n(%)
Hiccups (treatment related AE) (1000 mg, Gr2): 0 n(%)
Hot flush (treatment related AE) (1000 mg, Gr2): 0 n(%)
Myalgia (treatment related AE) (1000 mg, Gr2): 0 n(%)
Nausea (treatment related AE) (1000 mg, Gr2): 2 n(%)
Odynophagia (treatment related AE) (1000 mg, Gr2): 1 n(%)
Oesophageal pain (treatment related AE) (1000 mg, Gr2): 1 n(%)
Salivary hypersecretion (treatment related AE) (1000 mg, Gr2): 0 n(%)
Sensation of a foreign body (treatment related AE) (1000 mg, Gr2): 0 n(%)
Vomiting (treatment related AE) (1000 mg, Gr2): 3 n(%)
Abdominal discomfort (treatment related AE) (1000 mg, Gr3): 0 n(%)
Abdominal distension (treatment related AE) (1000 mg, Gr3): 0 n(%)
Abdominal pain (treatment related AE) (1000 mg, Gr3): 0 n(%)
Diarrhoea (treatment related AE) (1000 mg, Gr3): 0 n(%)
Dizziness (treatment related AE) (1000 mg, Gr3): 0 n(%)
Dyspepsia (treatment related AE) (1000 mg, Gr3): 0 n(%)
Dysphagia (treatment related AE) (1000 mg, Gr3): 0 n(%)
Flatulance (treatment related AE) (1000 mg, Gr3): 0 n(%)
Headache (treatment related AE) (1000 mg, Gr3): 0 n(%)
Hiccups (treatment related AE) (1000 mg, Gr3): 0 n(%)
Hot flush (treatment related AE) (1000 mg, Gr3): 0 n(%)
Myalgia (treatment related AE) (1000 mg, Gr3): 0 n(%)
Nausea (treatment related AE) (1000 mg, Gr3): 0 n(%)
Odynophagia (treatment related AE) (1000 mg, Gr3): 0 n(%)
Oesophageal pain (treatment related AE) (1000 mg, Gr3): 1 n(%)
Salivary hypersecretion (treatment related AE) (1000 mg, Gr3): 0 n(%)
Sensation of a foreign body (treatment related AE) (1000 mg, Gr3): 0 n(%)
Vomiting (treatment related AE) (1000 mg, Gr3): 0 n(%)
dose limiting toxicities (in words) [1]: No dose limiting toxicities (DLT) were observed
maximum tolerated dose (MTD) (in words) [1]: not established
Abdominal discomfort (treatment related AE) (Total Active, Gr1): 4 n(%)
Abdominal distension (treatment related AE) (Total Active, Gr1): 5 n(%)
Abdominal pain (treatment related AE) (Total Active, Gr1): 7 n(%)
Diarrhoea (treatment related AE) (Total Active, Gr1): 6 n(%)
Dizziness (treatment related AE) (Total Active, Gr1): 5 n(%)
Dyspepsia (treatment related AE) (Total Active, Gr1): 13 n(%)
Dysphagia (treatment related AE) (Total Active, Gr1): 4 n(%)
Flatulance (treatment related AE) (Total Active, Gr1): 5 n(%)
Headache (treatment related AE) (Total Active, Gr1): 9 n(%)
Hiccups (treatment related AE) (Total Active, Gr1): 9 n(%)
Hot flush (treatment related AE) (Total Active, Gr1): 11 n(%)
Myalgia (treatment related AE) (Total Active, Gr1): 3 n(%)
Nausea (treatment related AE) (Total Active, Gr1): 14 n(%)
Odynophagia (treatment related AE) (Total Active, Gr1): 4 n(%)
Oesophageal pain (treatment related AE) (Total Active, Gr1): 3 n(%)
Salivary hypersecretion (treatment related AE) (Total Active, Gr1): 8 n(%)
Sensation of a foreign body (treatment related AE) (Total Active, Gr1): 7 n(%)
Vomiting (treatment related AE) (Total Active, Gr1): 3 n(%)
Abdominal discomfort (treatment related AE) (Total Active, Gr2): 1 n(%)
Abdominal distension (treatment related AE) (Total Active, Gr2): 1 n(%)
Abdominal pain (treatment related AE) (Total Active, Gr2): 3 n(%)
Diarrhoea (treatment related AE) (Total Active, Gr2): 1 n(%)
Dizziness (treatment related AE) (Total Active, Gr2): 0 n(%)
Dyspepsia (treatment related AE) (Total Active, Gr2): 3 n(%)
Dysphagia (treatment related AE) (Total Active, Gr2): 3 n(%)
Flatulance (treatment related AE) (Total Active, Gr2): 0 n(%)
Headache (treatment related AE) (Total Active, Gr2): 1 n(%)
Hiccups (treatment related AE) (Total Active, Gr2): 0 n(%)
Hot flush (treatment related AE) (Total Active, Gr2): 0 n(%)
Myalgia (treatment related AE) (Total Active, Gr2): 2 n(%)
Nausea (treatment related AE) (Total Active, Gr2): 5 n(%)
Odynophagia (treatment related AE) (Total Active, Gr2): 2 n(%)
Oesophageal pain (treatment related AE) (Total Active, Gr2): 6 n(%)
Salivary hypersecretion (treatment related AE) (Total Active, Gr2): 0 n(%)
Sensation of a foreign body (treatment related AE) (Total Active, Gr2): 0 n(%)
Vomiting (treatment related AE) (Total Active, Gr2): 10 n(%)
Abdominal discomfort (treatment related AE) (Total Active, Gr3): 0 n(%)
Abdominal distension (treatment related AE) (Total Active, Gr3): 0 n(%)
Abdominal pain (treatment related AE) (Total Active, Gr3): 0 n(%)
Diarrhoea (treatment related AE) (Total Active, Gr3): 0 n(%)
Dizziness (treatment related AE) (Total Active, Gr3): 0 n(%)
Dyspepsia (treatment related AE) (Total Active, Gr3): 0 n(%)
Dysphagia (treatment related AE) (Total Active, Gr3): 0 n(%)
Flatulance (treatment related AE) (Total Active, Gr3): 0 n(%)
Headache (treatment related AE) (Total Active, Gr3): 0 n(%)
Hiccups (treatment related AE) (Total Active, Gr3): 0 n(%)
Hot flush (treatment related AE) (Total Active, Gr3): 0 n(%)
Myalgia (treatment related AE) (Total Active, Gr3): 0 n(%)
Nausea (treatment related AE) (Total Active, Gr3): 0 n(%)
Odynophagia (treatment related AE) (Total Active, Gr3): 0 n(%)
Oesophageal pain (treatment related AE) (Total Active, Gr3): 1 n(%)
Salivary hypersecretion (treatment related AE) (Total Active, Gr3): 0 n(%)
Sensation of a foreign body (treatment related AE) (Total Active, Gr3): 0 n(%)
Vomiting (treatment related AE) (Total Active, Gr3): 1 n(%)
Abdominal discomfort (treatment related AE) (Total TEAE, All): 5 (11)
Abdominal distension (treatment related AE) (Total TEAE, All): 6 (14)
Abdominal pain (treatment related AE) (Total TEAE, All): 10 (23)
Diarrhoea (treatment related AE) (Total TEAE, All): 7 (16)
Dizziness (treatment related AE) (Total TEAE, All): 5 (11)
Dyspepsia (treatment related AE) (Total TEAE, All): 16 (36)
Dysphagia (treatment related AE) (Total TEAE, All): 7 (16)
Flatulance (treatment related AE) (Total TEAE, All): 5 (11)
Headache (treatment related AE) (Total TEAE, All): 10 (23)
Hiccups (treatment related AE) (Total TEAE, All): 9 (20)
Hot flush (treatment related AE) (Total TEAE, All): 11 (25)
Myalgia (treatment related AE) (Total TEAE, All): 5 (11)
Nausea (treatment related AE) (Total TEAE, All): 19 (43)
Odynophagia (treatment related AE) (Total TEAE, All): 6 (14)
Oesophageal pain (treatment related AE) (Total TEAE, All): 10 (23)
Salivary hypersecretion (treatment related AE) (Total TEAE, All): 8 (18)
Sensation of a foreign body (treatment related AE) (Total TEAE, All): 7 (16)
Vomiting (treatment related AE) (Total TEAE, All): 14 (32)
